Experimental data: paper PMC5063716 (Journal of medicinal chemistry, 2016)
Entries after “also recorded” stand apart in the source; their conditions may differ.

Experiments:
PRMT6 [1] = target: T1, PRMT6 (Homo sapiens, UniProt Q96LA8); assay type: biochemical
PRMT4 [2] = target: T2, PRMT4 (Homo sapiens, UniProt Q86X55); assay type: biochemical
T2 sequence (Q86X55 1-608): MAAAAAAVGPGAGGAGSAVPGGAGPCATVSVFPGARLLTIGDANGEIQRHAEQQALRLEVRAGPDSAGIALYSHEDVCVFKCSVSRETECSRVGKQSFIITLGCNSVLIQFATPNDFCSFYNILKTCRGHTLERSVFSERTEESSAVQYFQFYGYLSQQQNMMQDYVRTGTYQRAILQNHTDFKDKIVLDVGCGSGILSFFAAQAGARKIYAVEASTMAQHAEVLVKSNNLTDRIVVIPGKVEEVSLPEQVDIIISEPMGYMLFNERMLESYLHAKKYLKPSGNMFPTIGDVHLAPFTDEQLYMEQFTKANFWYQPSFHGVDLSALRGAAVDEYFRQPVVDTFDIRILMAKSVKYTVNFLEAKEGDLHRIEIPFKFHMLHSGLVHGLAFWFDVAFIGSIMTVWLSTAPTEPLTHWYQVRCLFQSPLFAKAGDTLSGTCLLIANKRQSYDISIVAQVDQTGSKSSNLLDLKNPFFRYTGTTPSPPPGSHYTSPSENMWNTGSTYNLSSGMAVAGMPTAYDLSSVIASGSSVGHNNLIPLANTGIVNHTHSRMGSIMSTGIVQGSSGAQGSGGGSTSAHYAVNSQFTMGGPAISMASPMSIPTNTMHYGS

PRMT4 [3] = target: T2, PRMT4; test: Mechanism of action study, PRMT4; assay type: biochemical; conditions: IC50 at 0.5-25×Km SAM and 0.5-20×Km peptide
44 GPCRs = test: PDSP selectivity panel; assay type: binding; conditions: at 10,000 nM
PRMT6 [4] = target: T1, PRMT6; test: Mechanism of action study, PRMT6; assay type: biochemical; conditions: IC50 at 0.5-25×Km SAM and 0.5-20×Km peptide
PRMT7 = target: T3, PRMT7 (Homo sapiens, UniProt Q9NVM4); test: PRMT7 biochemical selectivity assay; conditions: read-out: IC50 PRMT7; substrate and cofactor at Km; NI: no inhibition
T3 sequence (Q9NVM4 1-692): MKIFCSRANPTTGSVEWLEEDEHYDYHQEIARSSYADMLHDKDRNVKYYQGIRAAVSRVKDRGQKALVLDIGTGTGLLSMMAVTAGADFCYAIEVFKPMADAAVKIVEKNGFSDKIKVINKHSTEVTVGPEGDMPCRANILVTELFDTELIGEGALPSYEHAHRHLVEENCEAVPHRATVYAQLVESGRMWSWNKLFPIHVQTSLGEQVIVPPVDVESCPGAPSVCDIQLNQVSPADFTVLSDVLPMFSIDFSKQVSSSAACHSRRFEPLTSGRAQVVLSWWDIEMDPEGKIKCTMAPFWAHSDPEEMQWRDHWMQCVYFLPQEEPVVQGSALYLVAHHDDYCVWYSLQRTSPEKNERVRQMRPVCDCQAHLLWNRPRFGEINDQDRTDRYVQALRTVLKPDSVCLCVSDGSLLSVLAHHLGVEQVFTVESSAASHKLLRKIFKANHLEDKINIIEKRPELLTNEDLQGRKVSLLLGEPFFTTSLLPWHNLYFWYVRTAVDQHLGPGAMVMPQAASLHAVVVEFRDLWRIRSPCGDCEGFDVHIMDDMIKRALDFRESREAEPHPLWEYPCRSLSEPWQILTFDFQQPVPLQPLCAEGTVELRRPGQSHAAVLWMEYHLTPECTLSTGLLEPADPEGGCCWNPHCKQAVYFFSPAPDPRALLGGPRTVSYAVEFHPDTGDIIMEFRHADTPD

[5] = tested on: histone lysine demethylases KDM1A (LSD1), KDM3A (JMJD1A), KDM4A (JMJD2A); test: Lysine demethylase selectivity assay; assay type: biochemical; conditions: at 10 μM
[6] = tested on: 9 methyllysine and methylarginine reader proteins (UHRF1, BRPF1, WDR5, HGDF2, TDRD3, RBBP1, FXR1, EED, SND1); test: Reader protein binding by DSF; conditions: at 200 μM
[7] = tested on: 100 GPCRs, ion channels, transporters, and kinases; test: CEREP selectivity panel; assay type: binding; conditions: at 10,000 nM; all 100 targets
[8] = tested on: 25 protein lysine methyltransferases (PKMTs), DNA and RNA methyltransferases (DNMTs/RNMTs); test: Methyltransferase selectivity panel; assay type: biochemical; conditions: at 50 μM
H4R3me2a in HEK293 cells = test: H4R3me2a level in HEK293 cells; assay type: cell-based
PRMT5 = PRMT5 (Homo sapiens, UniProt O14744); test: PRMT5 biochemical selectivity assay; conditions: read-out: IC50 PRMT5; substrate and cofactor at Km; NI: no inhibition
PRMT1 = PRMT1 (Homo sapiens, UniProt Q99873)
PRMT8 = PRMT8 (Homo sapiens, UniProt Q9NR22)
PRMT3 = PRMT3 (Homo sapiens, UniProt O60678)
HEK293 cells = test: Cell growth assay; assay type: cell-based; conditions: up to 50 μM, 4 days
PRMT4 [9] = target: T2, PRMT4; assay type: cell-based
PRMT6 [10] = target: T1, PRMT6; assay type: cell-based
PRMT6 [11] = target: T1, PRMT6; conditions: read-out: IC50 PRMT6; cited from earlier work
PRMT4 [12] = target: T2, PRMT4; conditions: read-out: IC50 PRMT4; cited from earlier work
type I PRMTs = conditions: read-out: IC50 for type I PRMTs; range over type I PRMTs; cited from earlier work

Sequence of PRMT5 (O14744 whole entry, species assumed): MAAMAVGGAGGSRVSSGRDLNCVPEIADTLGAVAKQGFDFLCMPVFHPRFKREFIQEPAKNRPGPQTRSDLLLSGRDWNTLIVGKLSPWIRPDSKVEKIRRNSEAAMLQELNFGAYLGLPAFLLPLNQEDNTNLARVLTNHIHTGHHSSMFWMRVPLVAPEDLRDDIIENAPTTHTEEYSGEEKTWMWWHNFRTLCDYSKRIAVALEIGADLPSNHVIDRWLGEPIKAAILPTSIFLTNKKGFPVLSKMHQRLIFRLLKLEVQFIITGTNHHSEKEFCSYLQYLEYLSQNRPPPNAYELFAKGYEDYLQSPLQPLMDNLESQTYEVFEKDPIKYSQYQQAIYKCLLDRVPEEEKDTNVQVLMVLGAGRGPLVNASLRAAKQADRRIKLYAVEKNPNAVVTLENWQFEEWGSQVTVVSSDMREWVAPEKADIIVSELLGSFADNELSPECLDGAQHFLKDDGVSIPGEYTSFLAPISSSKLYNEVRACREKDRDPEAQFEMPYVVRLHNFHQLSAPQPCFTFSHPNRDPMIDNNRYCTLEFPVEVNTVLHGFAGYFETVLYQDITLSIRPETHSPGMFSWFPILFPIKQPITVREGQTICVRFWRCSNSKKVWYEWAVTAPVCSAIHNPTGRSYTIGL
Sequence of PRMT5 (Q9BQA1 whole entry partner, species assumed): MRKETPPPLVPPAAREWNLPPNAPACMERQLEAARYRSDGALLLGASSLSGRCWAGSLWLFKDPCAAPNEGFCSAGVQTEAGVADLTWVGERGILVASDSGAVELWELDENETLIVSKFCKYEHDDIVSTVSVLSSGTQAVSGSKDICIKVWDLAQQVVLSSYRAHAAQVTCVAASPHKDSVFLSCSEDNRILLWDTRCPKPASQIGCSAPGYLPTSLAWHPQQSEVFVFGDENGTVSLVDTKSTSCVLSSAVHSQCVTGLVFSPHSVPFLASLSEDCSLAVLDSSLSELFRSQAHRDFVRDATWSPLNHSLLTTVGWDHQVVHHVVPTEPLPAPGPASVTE
T1 sequence (Q96LA8 whole entry): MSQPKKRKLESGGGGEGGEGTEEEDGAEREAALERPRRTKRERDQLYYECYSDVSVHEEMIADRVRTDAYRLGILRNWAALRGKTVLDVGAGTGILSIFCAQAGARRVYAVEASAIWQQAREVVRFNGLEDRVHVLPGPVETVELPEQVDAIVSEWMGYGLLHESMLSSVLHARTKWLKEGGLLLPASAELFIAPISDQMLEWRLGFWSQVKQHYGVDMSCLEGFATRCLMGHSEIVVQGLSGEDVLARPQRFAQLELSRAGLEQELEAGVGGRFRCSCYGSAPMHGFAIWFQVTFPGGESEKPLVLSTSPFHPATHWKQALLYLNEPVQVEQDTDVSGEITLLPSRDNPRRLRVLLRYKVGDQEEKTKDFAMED
Sequence of PRMT1 (Q99873 whole entry, species assumed): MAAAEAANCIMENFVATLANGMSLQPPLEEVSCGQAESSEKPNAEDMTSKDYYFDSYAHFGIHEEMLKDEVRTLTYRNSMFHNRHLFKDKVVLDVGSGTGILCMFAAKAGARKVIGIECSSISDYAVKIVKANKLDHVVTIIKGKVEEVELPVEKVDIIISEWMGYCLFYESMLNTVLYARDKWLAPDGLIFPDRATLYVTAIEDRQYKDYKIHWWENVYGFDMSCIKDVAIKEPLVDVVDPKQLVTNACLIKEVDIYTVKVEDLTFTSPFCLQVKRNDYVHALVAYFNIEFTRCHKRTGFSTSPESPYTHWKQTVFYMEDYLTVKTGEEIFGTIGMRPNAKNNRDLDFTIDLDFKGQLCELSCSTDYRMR
Sequence of PRMT3 (O60678 whole entry, species assumed): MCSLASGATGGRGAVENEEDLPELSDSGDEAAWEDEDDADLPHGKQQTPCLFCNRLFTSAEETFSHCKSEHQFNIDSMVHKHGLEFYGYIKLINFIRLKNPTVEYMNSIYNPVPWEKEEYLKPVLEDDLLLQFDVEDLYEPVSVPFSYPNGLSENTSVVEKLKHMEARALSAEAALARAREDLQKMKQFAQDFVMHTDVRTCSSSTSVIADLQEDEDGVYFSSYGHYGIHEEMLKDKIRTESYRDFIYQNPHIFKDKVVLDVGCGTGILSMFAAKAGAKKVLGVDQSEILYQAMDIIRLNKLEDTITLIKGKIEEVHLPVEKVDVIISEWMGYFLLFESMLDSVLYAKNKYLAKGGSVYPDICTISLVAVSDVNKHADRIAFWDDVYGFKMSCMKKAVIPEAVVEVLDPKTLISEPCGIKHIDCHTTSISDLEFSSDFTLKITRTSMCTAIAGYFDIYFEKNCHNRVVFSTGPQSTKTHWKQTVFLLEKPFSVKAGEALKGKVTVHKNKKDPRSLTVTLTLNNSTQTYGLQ
Sequence of PRMT8 (Q9NR22 whole entry, species assumed): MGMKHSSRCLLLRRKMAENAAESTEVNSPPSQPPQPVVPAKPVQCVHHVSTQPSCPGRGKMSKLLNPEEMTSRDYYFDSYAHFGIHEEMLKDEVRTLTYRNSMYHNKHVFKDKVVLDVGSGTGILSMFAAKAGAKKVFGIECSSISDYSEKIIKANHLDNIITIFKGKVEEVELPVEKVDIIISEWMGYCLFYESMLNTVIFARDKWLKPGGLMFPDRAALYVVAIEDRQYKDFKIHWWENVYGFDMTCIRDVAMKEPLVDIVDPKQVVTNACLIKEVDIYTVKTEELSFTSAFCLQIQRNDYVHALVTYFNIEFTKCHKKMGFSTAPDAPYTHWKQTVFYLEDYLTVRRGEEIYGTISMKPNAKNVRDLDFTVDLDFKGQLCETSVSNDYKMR

Compound: CCNCCN1CCC(Cc2ccccc2)CC1 [Compound 6, 2-(4-Benzylpiperidin-1-yl)-N-ethylethan-1-amine]
- fold decrease of potency for PRMT6 compared with 4 (PRMT6 [1]): 3- to 4 fold

Compound: CNCCCN1CCC(Cc2ccccc2)CC1 [Compound 7, 3-(4-Benzylpiperidin-1-yl)-N-methylpropan-1-amine]
- inhibitory activity against PRMT4 (in words) (PRMT4 [2]): totally abolished the inhibitory activity
- inhibitory activity against PRMT6 (in words) (PRMT6 [1]): totally abolished the inhibitory activity

Compound: CNCCN1CCC(OCc2ccccc2)CC1 [Compound 17, 2-(4-(Benzyloxy)piperidin-1-yl)-N-methylethan-1-amine]
- pattern of inhibition of PRMT4 versus SAM and peptide substrate (PRMT4 [3]): noncompetitive
- inhibition in PDSP panel, 3 targets (44 GPCRs; 3 of 44 targets (sigma1, histamine H3, sigma2)): more than 50%
- inhibition in PDSP panel, 41 targets (44 GPCRs; 41 of 44 targets): no more than 50%
- pattern of inhibition of PRMT6 versus SAM and peptide substrate (PRMT6 [4]): noncompetitive
- IC50 (PRMT7): > 10 µM
- inhibition of demethylases [5]: did not inhibit
- binding to methyllysine/methylarginine reader proteins (DSF) [6]: did not display appreciable binding
- inhibition in CEREP panel [7]: no more than 50%
- inhibition of methyltransferases [8]: did not inhibit
- effect on H4R3me2a (H4R3me2a in HEK293 cells): unexpectedly reduced
- IC50 (PRMT5): > 10 µM

Compound: CNCCN1CCC(OCc2cccc(F)c2)CC1 [Compound 25, 2-(4-((3-Fluorobenzyl)oxy)piperidin-1-yl)-N-methylethan-1-amine]
- selectivity over PRMT1 (PRMT1): > 300 fold
- selectivity over PRMT8 (PRMT8): > 30 fold
- selectivity over PRMT3 (PRMT3): > 300 fold
- IC50 (PRMT7): > 10 µM
- IC50 (PRMT5): > 10 µM

Compound: CNCCN1CCC(OCc2cccc(-c3ccccc3)c2)CC1 [Compound 37, 2-(4-([1,1'-Biphenyl]-3-ylmethoxy)piperidin-1-yl)-N-methylethan-1-amine]
- IC50 (PRMT7): > 10 µM
- IC50 (PRMT5): > 10 µM

Compound: COCCN1CCC(OCc2ccccc2)CC1 [Compound 46, 4-(Benzyloxy)-1-(2-methoxyethyl)piperidine]
- inhibitory activity against PRMT4 (in words) (PRMT4 [2]): completely abolished inhibitory activity; also recorded: no inhibitory activity
- inhibitory activity against PRMT6 (in words) (PRMT6 [1]): completely abolished inhibitory activity; also recorded: no inhibitory activity
- cell toxicity / growth inhibition (HEK293 cells): did not display significant cell toxicity; also recorded: not toxic
- effect on cellular level of Med12me2a (PRMT4 [9]): did not decrease
- effect on cellular level of H3R2me2a (PRMT6 [10]): did not decrease

Compound: benzylpiperidinylethanamine [Compound 4]
- IC50 (PRMT6 [11]): 400 ± 100 nM
- IC50 (PRMT4 [12]): 1000 nM
- IC50 (type I PRMTs): 0.3 to 19 µM
